According to ChEMBL document CHEMBL5532661, “Discovery of a Novel Glucagon-like Peptide-1 (GLP-1) Analogue from Bullfrog and Investigation of Its Potential for Designing GLP-1-Based Multiagonists” (J Med Chem, 2024):
pEC50: −log10 of the molar value. Calls of active or inactive are those of the source. The calls are words filed in the database; no cut-off is given here. Numbered stars: 1 amine (or outer) side, 2 acyl side, 3 side chain; on linkers, the order of the positions; unused ones are H or OH. Square brackets hold non-standard residues; d marks the D form. Side chains are listed from the residue outwards. Peptide text beside a SMILES is read from it. * marks the point of attachment. C20 diacid = O=C(O)CCCCCCCCCCCCCCCCCCC(=O)*; C18 diacid = O=C(O)CCCCCCCCCCCCCCCCC(=O)*; γGlu = O=C(O)[C@H](CCC(=O)[*:2])N[*:1]; Palmitoyl = CCCCCCCCCCCCCCCC(=O)*; AEEA = NCCOCCOCC(=O)O; Aib = CC(C)(N)C(=O)O

Columns and labels:
[1] = target: T1, Glucagon-like peptide 1 receptor (Homo sapiens, UniProt P43220); assay: Agonist activity at human GLP-1 receptor expressed in HEK293 cells assessed as cAMP level measured after 60 mins by HTRF based assay; assay type: functional, cell-based
[2] = target: T1, Glucagon-like peptide 1 receptor; assay: Agonist activity at human GLP-1 receptor expressed in HEK293 cells assessed as cAMP level by measuring relative percent (GLP-1 EC50/compound EC50) measured after 60 mins by HTRF based assay relative to GLP-1; assay type: functional, cell-based; conditions: filed as agonist
Glucagon receptor [3] = target: T2, Glucagon receptor (Homo sapiens, UniProt P47871); assay: Agonist activity at human GCGR expressed in HEK293 cells assessed as cAMP level measured after 60 mins by HTRF based assay; assay type: functional, cell-based
Glucagon receptor [4] = target: T2, Glucagon receptor; assay: Agonist activity at human GCGR expressed in HEK293 cells assessed as cAMP level by measuring relative percent (glucagon EC50/compound EC50) measured after 60 mins by HTRF based assay relative to glucagon; assay type: functional, cell-based
[5] = target: T3, Gastric inhibitory polypeptide receptor (Homo sapiens, UniProt P48546); assay: Agonist activity at human GIPR receptor expressed in HEK293 cells assessed as cAMP level measured after 60 mins by HTRF based assay; assay type: functional, cell-based
T3 sequence (P48546 whole entry): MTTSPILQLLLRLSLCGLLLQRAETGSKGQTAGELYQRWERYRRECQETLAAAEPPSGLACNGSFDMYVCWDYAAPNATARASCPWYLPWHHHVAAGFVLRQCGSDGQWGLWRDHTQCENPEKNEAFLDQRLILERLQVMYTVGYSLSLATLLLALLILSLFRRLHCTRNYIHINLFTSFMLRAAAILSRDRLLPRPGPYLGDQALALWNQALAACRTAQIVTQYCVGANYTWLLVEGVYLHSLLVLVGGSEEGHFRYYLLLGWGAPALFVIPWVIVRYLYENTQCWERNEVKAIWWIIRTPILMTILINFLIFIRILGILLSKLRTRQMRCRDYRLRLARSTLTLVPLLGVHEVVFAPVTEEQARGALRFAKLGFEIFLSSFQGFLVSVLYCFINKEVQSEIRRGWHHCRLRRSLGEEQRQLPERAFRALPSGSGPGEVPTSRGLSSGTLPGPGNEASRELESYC

[6] = target: T4, Gastric inhibitory polypeptide receptor (Homo sapiens) (UniProt P48546); assay: Agonist activity at human GIPR receptor expressed in HEK293 cells assessed as cAMP level by measuring relative percent (GIP EC50/compound EC50) measured after 60 mins by HTRF based assay relative to GIP; assay type: functional, cell-based
T4 sequence (whole entry): T3 sequence (P48546 whole entry)

Mus musculus [7] = assay: Antihyperglycemic effect in non-fasted DIO mouse assessed as decrease in blood glucose at 30 nmol/kg, sc measured upto 48 hrs; assay type: functional, organism-based
Mus musculus [8] = assay: Hypoglycemic effect in ICR mouse treated with 3 g/kg glucose assessed as reduction in blood glucose level at 100 nmol/kg, sc measured upto 120 mins by acute glucose lowering test; assay type: functional, organism-based
Mus musculus [9] = assay: Hypoglycemic effect in ICR mouse treated with 3 g/kg glucose assessed as reduction in blood glucose level at 30 nmol/kg, sc measured upto 120 mins pretreated with GLP-1R antagonist by OGTT; assay type: functional, organism-based
Mus musculus [10] = assay: Anorexigenic effect in ICR mouse assessed as decrease in food intake at 30 nmol/kg, sc measured upto 72 hrs by acute food intake study; assay type: functional, organism-based
Mus musculus [11] = assay: Antihyperglycemic effect in DIO mouse assessed as antihyperglycemic duration by measuring blood glucose at 30 nmol/kg, sc administered twice daily measured by hypoglycemic duration assay; assay type: functional, organism-based
Mus musculus [12] = assay: Reduction in body weight in DIO mouse at 30 nmol/kg, sc treated every 2 and half day once measured after 21 days; assay type: functional; set-up: scale not given: the % may be the effect or the level left; conditions: time 21.0 day
Mus musculus [13] = assay: Reduction in serum AST in DIO mouse at 30 nmol/kg, sc treated every 2 and half day once measured after 21 days; assay type: functional, organism-based; conditions: time 21.0 day
Mus musculus [14] = assay: Reduction in serum ALT in DIO mouse at 30 nmol/kg, sc treated every 2 and half day once measured after 21 days; assay type: functional, organism-based; conditions: time 21.0 day

T1 sequence (P43220 whole entry): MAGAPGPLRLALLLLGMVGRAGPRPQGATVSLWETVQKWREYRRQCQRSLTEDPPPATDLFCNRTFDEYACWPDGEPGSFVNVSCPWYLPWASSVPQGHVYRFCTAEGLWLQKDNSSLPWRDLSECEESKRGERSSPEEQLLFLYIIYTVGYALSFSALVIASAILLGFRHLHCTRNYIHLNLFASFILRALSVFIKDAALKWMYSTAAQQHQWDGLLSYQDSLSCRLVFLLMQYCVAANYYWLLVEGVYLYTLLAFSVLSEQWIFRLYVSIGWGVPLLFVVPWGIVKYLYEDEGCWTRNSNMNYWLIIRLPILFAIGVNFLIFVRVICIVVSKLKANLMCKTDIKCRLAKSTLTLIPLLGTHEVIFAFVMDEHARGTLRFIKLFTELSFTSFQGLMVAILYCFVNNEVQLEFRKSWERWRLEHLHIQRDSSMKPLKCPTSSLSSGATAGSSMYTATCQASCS
T2 sequence (P47871 whole entry): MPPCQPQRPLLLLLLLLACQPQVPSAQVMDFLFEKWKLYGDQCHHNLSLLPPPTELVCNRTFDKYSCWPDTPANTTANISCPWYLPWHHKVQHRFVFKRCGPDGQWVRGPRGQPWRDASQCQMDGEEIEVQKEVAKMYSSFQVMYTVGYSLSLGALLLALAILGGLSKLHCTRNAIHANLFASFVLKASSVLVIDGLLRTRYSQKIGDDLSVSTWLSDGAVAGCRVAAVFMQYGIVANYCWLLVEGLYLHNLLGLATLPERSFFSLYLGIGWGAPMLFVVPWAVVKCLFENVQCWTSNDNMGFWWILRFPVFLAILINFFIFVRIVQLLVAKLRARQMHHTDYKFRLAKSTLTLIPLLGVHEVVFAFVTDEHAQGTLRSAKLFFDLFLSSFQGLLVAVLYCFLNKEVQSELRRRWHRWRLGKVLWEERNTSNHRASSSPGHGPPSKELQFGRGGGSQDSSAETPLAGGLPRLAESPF

Compound	pEC50 [1]	Activity [2] [%]	pEC50 (Glucagon receptor [3])	Activity (Glucagon receptor [4]) [%]	pEC50 [5]	Activity [6] [%]	Activity (Mus musculus [7])	Activity (Mus musculus [8])	Activity (Mus musculus [9])	Activity (Mus musculus [10])	Activity (Mus musculus [11])	Activity (Mus musculus [12]) [%]	Activity (Mus musculus [13])	Activity (Mus musculus [14])
CC[C@H](C)[C@H](NC(=O)[C@H](CCCCNC(=O)COCCOCCNC(=O)COCCOCCNC(=O)CC[C@H](NC(=O)CCCCCCCCCCCCCCCCC(=O)O)C(=O)O)NC(=O)[C@H](CCC(=O)O)NC(=O)[C@H](CCSC)NC(=O)[C@H](C)NC(=O)[C@H](CCCNC(=N)N)NC(=O)[C@H](CO)NC(=O)[C@H](CCSC)NC(=O)[C@H](CC(=O)O)NC(=O)[C@H](CO)NC(=O)[C@@H](NC(=O)[C@H](Cc1ccccc1)NC(=O)[C@@H](NC(=O)CNC(=O)[C@H](CCC(N)=O)NC(=O)C(C)(C)NC(=O)[C@@H](N)Cc1c[nH]cn1)[C@@H](C)O)[C@@H](C)O)C(=O)N[C@@H](C)C(=O)N[C@H](C(=O)N[C@@H](CCCNC(=N)N)C(=O)N[C@@H](CC(C)C)C(=O)N[C@@H](Cc1ccccc1)C(=O)N[C@H](C(=O)N[C@@H](CC(=O)O)C(=O)N[C@@H](Cc1c[nH]c2ccccc12)C(=O)N[C@@H](CC(C)C)C(=O)N[C@H](C(=O)N[C@@H](CCC(=O)O)C(=O)NCC(=O)NCC(=O)N1CCC[C@H]1C(=O)N[C@@H](CO)C(=O)N[C@@H](CO)C(=O)NCC(=O)N[C@@H](C)C(=O)N1CCC[C@H]1C(=O)N1CCC[C@H]1C(=O)N1CCC[C@H]1C(=O)N[C@@H](CO)C(N)=O)[C@@H](C)CC)C(C)C)C(C)C (H-H[Aib]QGTFTSDMSRAMEK([AEEA-AEEA-γGlu-C18 diacid])IAVRLFVDWLIEGGPSSGAPPPS-NH2)	10.72	279	9.21	15	9.08	3	–	–	–	–	–	–	–	–
CC[C@H](C)[C@H](NC(=O)[C@H](CCCCNC(=O)COCCOCCNC(=O)COCCOCCNC(=O)CC[C@H](NC(=O)CCCCCCCCCCCCCCCCCCC(=O)O)C(=O)O)NC(=O)[C@H](CCC(=O)O)NC(=O)[C@H](CCSC)NC(=O)[C@H](C)NC(=O)[C@H](CCCNC(=N)N)NC(=O)[C@H](CO)NC(=O)[C@H](CCSC)NC(=O)[C@H](CC(=O)O)NC(=O)[C@H](CO)NC(=O)[C@@H](NC(=O)[C@H](Cc1ccccc1)NC(=O)[C@@H](NC(=O)CNC(=O)[C@H](CCC(N)=O)NC(=O)C(C)(C)NC(=O)[C@@H](N)Cc1c[nH]cn1)[C@@H](C)O)[C@@H](C)O)C(=O)N[C@@H](C)C(=O)N[C@H](C(=O)N[C@@H](CCCNC(=N)N)C(=O)N[C@@H](CC(C)C)C(=O)N[C@@H](Cc1ccccc1)C(=O)N[C@H](C(=O)N[C@@H](CC(=O)O)C(=O)N[C@@H](Cc1c[nH]c2ccccc12)C(=O)N[C@@H](CC(C)C)C(=O)N[C@H](C(=O)N[C@@H](CCC(=O)O)C(=O)NCC(=O)NCC(=O)N1CCC[C@H]1C(=O)N[C@@H](CO)C(=O)N[C@@H](CO)C(=O)NCC(=O)N[C@@H](C)C(=O)N1CCC[C@H]1C(=O)N1CCC[C@H]1C(=O)N1CCC[C@H]1C(=O)N[C@@H](CO)C(N)=O)[C@@H](C)CC)C(C)C)C(C)C (H-H[Aib]QGTFTSDMSRAMEK([AEEA-AEEA-γGlu-C20 diacid])IAVRLFVDWLIEGGPSSGAPPPS-NH2)	10.70	265	9.10	12	9.05	3	–	–	–	–	–	–	–	–
CCCCCCCCCCCCCCCC(=O)N[C@@H](CCC(=O)NCCCC[C@H](NC(=O)[C@H](C)NC(=O)[C@H](C)NC(=O)[C@H](CCC(=O)O)NC(=O)[C@H](CCC(=O)O)NC(=O)[C@H](CCC(=O)O)NC(=O)[C@H](CC(C)C)NC(=O)[C@H](Cc1ccc(O)cc1)NC(=O)[C@H](CO)NC(=O)[C@H](CO)NC(=O)[C@H](CCSC)NC(=O)[C@H](CC(=O)O)NC(=O)[C@H](CO)NC(=O)[C@@H](NC(=O)[C@H](Cc1ccccc1)NC(=O)[C@@H](NC(=O)CNC(=O)[C@H](CC(=O)O)NC(=O)C(C)(C)NC(=O)[C@@H](N)Cc1c[nH]cn1)[C@@H](C)O)[C@@H](C)O)C(=O)N[C@@H](CCC(=O)O)C(=O)N[C@@H](Cc1ccccc1)C(=O)N[C@H](C(=O)N[C@@H](CC(=O)O)C(=O)N[C@@H](Cc1c[nH]c2ccccc12)C(=O)N[C@@H](CC(C)C)C(=O)N[C@H](C(=O)N[C@@H](CCCCN)C(=O)NCC(=O)N[C@@H](CCCNC(=N)N)C(=O)N1CCC[C@H]1C(=O)N[C@@H](C)C(N)=O)[C@@H](C)CC)C(C)C)C(=O)O (H-H[Aib]DGTFTSDMSSYLEEEAAK([γGlu-Palmitoyl])EFVDWLIKGRPA-NH2)	10.68	–	–	–	–	–	inactive	–	–	–	–	–	–	–
CC[C@H](C)[C@H](NC(=O)[C@H](CCCCNC(=O)COCCOCCNC(=O)COCCOCCNC(=O)CC[C@H](NC(=O)CCCCCCCCCCCCCCCCCCC(=O)O)C(=O)O)NC(=O)[C@H](CCC(=O)O)NC(=O)[C@H](CC(C)C)NC(=O)[C@H](C)NC(=O)[C@H](CCCNC(=N)N)NC(=O)[C@H](CO)NC(=O)[C@H](CCSC)NC(=O)[C@H](CC(=O)O)NC(=O)[C@H](CO)NC(=O)[C@@H](NC(=O)[C@H](Cc1ccccc1)NC(=O)[C@@H](NC(=O)CNC(=O)[C@H](CCC(N)=O)NC(=O)C(C)(C)NC(=O)[C@@H](N)Cc1c[nH]cn1)[C@@H](C)O)[C@@H](C)O)C(=O)N[C@@H](C)C(=O)N[C@@H](C)C(=O)N[C@@H](CCCNC(=N)N)C(=O)N[C@@H](CC(C)C)C(=O)N[C@@H](Cc1ccccc1)C(=O)N[C@H](C(=O)N[C@@H](CC(=O)O)C(=O)N[C@@H](Cc1c[nH]c2ccccc12)C(=O)N[C@@H](CC(C)C)C(=O)N[C@H](C(=O)N[C@@H](CCC(=O)O)C(=O)NCC(=O)NCC(=O)N1CCC[C@H]1C(=O)N[C@@H](CO)C(=O)N[C@@H](CO)C(=O)NCC(=O)N[C@@H](C)C(=O)N1CCC[C@H]1C(=O)N1CCC[C@H]1C(=O)N1CCC[C@H]1C(=O)N[C@@H](CO)C(N)=O)[C@@H](C)CC)C(C)C (H-H[Aib]QGTFTSDMSRALEK([AEEA-AEEA-γGlu-C20 diacid])IAARLFVDWLIEGGPSSGAPPPS-NH2)	10.74	294	9.28	17	9.02	3	–	–	–	–	–	–	–	–
CC[C@H](C)[C@H](NC(=O)[C@H](CCCCNC(=O)COCCOCCNC(=O)COCCOCCNC(=O)CC[C@H](NC(=O)CCCCCCCCCCCCCCCCC(=O)O)C(=O)O)NC(=O)[C@H](CCC(=O)O)NC(=O)[C@H](CCSC)NC(=O)[C@H](C)NC(=O)[C@H](CCCNC(=N)N)NC(=O)[C@H](CO)NC(=O)[C@H](CC(C)C)NC(=O)[C@H](CC(=O)O)NC(=O)[C@H](CO)NC(=O)[C@@H](NC(=O)[C@H](Cc1ccccc1)NC(=O)[C@@H](NC(=O)CNC(=O)[C@H](CCC(N)=O)NC(=O)C(C)(C)NC(=O)[C@@H](N)Cc1c[nH]cn1)[C@@H](C)O)[C@@H](C)O)C(=O)N[C@@H](C)C(=O)N[C@H](C(=O)N[C@@H](CCCNC(=N)N)C(=O)N[C@@H](CC(C)C)C(=O)N[C@@H](Cc1ccccc1)C(=O)N[C@H](C(=O)N[C@@H](CCC(=O)O)C(=O)N[C@@H](Cc1c[nH]c2ccccc12)C(=O)N[C@@H](CC(C)C)C(=O)N[C@H](C(=O)N[C@@H](CCC(=O)O)C(=O)NCC(=O)NCC(=O)N1CCC[C@H]1C(=O)N[C@@H](CO)C(=O)N[C@@H](CO)C(=O)NCC(=O)N[C@@H](C)C(=O)N1CCC[C@H]1C(=O)N1CCC[C@H]1C(=O)N1CCC[C@H]1C(=O)N[C@@H](CO)C(N)=O)[C@@H](C)CC)[C@@H](C)CC)C(C)C (H-H[Aib]QGTFTSDLSRAMEK([AEEA-AEEA-γGlu-C18 diacid])IAVRLFIEWLIEGGPSSGAPPPS-NH2)	10.52	177	8.59	4	9.00	3	–	–	–	–	–	–	–	–
SEMAGLUTIDE	–	–	–	–	–	–	–	Active	inactive	Active	Active	18.6	Active	Active
